Test results: patent US9593305B2, “Differentiation of pluripotent stem cells” (Janssen Biotech, Inc., priority 2008, dated 2017)

Tested on: H1 human embryonic stem cells
Experiment: Bioassay validation: activin A titration with or without Wnt3a, cell number and SOX17 intensity (Example 2)
Format: cell-based
Conditions: with 20 ng/ml Wnt3a days 1-2, four-day assay
Description: Activin A is an important mediator of differentiation in a broad range of cell types, including differentiation of embryonic stem cells to definitive endoderm. […] A bioassay that measures this differentiation in human embryonic stem cells was adapted in miniaturized format to 96-well plates for screening purposes. Validation was completed using treatment with commercial sources of activin A and Wnt3a recombinant proteins and measuring protein expression of the transcription factor SOX17, considered to be a representative marker of definitive endoderm.
Briefly, clusters of H1 human embryonic stem cells were grown on reduced growth factor […]™ (Invitrogen; Cat #356231)-coated tissue culture plastic. Cells were passaged using collagenase (Invitrogen; Cat #17104-019) treatment and gentle scraping, washed to remove residual enzyme, and plated in a ratio of 1:1 (surface area) on reduced growth factor […]™-coated 96-well black plates (Packard ViewPlates; Perkin Elmer; Cat #6005182). […]
Imaging was performed using an IN Cell Analyzer 1000 (GE Healthcare) utilizing the 51008bs dichroic for cells stained with Hoechst 33342 and Alexa Fluor 488. […] Segmentation for the nuclei was determined based on gray-scale levels (baseline range 100-300) and nuclear size. […]

With “Activin A: recombinant human activin A (PeproTech), TGF-beta family member” the “EC50 for induction of SOX17 expression” value was 0.03 to 0.05 µg/mL and the “Optimal activin A effects for induction of SOX17 expression (concentration range)” value was 100 to 200 ng/mL.
